# Columns and labels:
# [1] = First-in-human proof of concept study of oral branaplam in infants with Type 1 SMA: PK and safety; format: in vivo
# From the text: • Principle set-up of a pediatric ACAT/PBPK model in GastroPlus™ software including physico-chemical parameters, physiological parameters, and formulation factors. The ACAT model was linked to a full PBPK model in which tissue-to-plasma concentration ratios were estimated via in silico method provided by GastroPlus™ software. • Estimation of the clearance (CL) using plasma concentrations of branaplam from an open-label multi-part first-in-human proof of concept study of oral branaplam, Part 1 only. […] The branaplam doses were escalated in subsequent cohorts until MTD was determined or when PK results confirmed that the MTD could not be reached due to a potential pharmacokinetic exposure plateau at higher doses. […]
# The aim of part one of this study was to determine the safety and tolerability of ascending weekly doses and to estimate the maximum tolerated dose (MTD) of oral/enteral branaplam (see Example 3) in infants with Type 1 SMA. All patients had exactly 2 copies of the SMN2 gene, as determined e.g. by quantitative real time PCR or droplet digital PCR.
# Patients were dosed once weekly with branaplam. The branaplam doses were escalated in subsequent cohorts until MTD was determined or when PK results confirmed that the MTD could not be reached due to a potential pharmacokinetic exposure plateau at higher doses. […]
# [2] = Pediatric ACAT/PBPK model (Type 1 SMA patients); design: species or system human; settings: Type 1 SMA patients 33-39 months; optimized on observed data
# From the text: The pharmacokinetic (PK) model in adult subjects was developed using an Advanced Compartmental And Transit (ACAT)/Physiologically Based Pharmacokinetic (PBPK) model in GastroPlus™ software, Version 9.6 (SimulationPlus, Lancaster, CA, USA).
# • Principle set-up of a pediatric ACAT/PBPK model in GastroPlus™ software including physico-chemical parameters, physiological parameters, and formulation factors. The ACAT model was linked to a full PBPK model in which tissue-to-plasma concentration ratios were estimated via in silico method provided by GastroPlus™ software. • Estimation of the clearance (CL) using plasma concentrations of branaplam from an open-label multi-part first-in-human proof of concept study of oral branaplam, Part 1 only. The aim of Part 1 of this study was to determine the safety and tolerability of ascending weekly doses and to estimate the maximum tolerated dose (MTD) of oral/enteral branaplam (formulation described in Example 3) in infants with Type 1 SMA. All patients had exactly 2 copies of the SMN2 gene. Patients were dosed once weekly with branaplam. The branaplam doses were escalated in subsequent cohorts until MTD was determined or when PK results confirmed that the MTD could not be reached due to a potential pharmacokinetic exposure plateau at higher doses. The starting dose referring to the free base was 6 mg/m^2 (equal to 0.3125 mg/kg). Subsequent doses were 12 mg/m^2, 24 mg/m^2, 48 mg/m^2 and 60 mg/m^2 (0.625 mg/kg, 1.25 mg/kg, 2.5 mg/kg and 3.125 mg/kg, respectively). 14 patients were enrolled in Part 1; 13 patients were exposed to branaplam. The duration of exposure ranged from 4-33 months, 7 patients remain in the study. Six of the 7 patients are receiving 60 mg/m^2, 1 patient is receiving 48 mg/m^2.
# Observed plasma concentrations of branaplam in 33-39 months old Type 1 SMA patients after nominal branaplam doses of 60 mg/m^2 (3.125 mg/kg, first-in-human proof of concept study with branaplam as described above) were used to build the pediatric ACAT/PBPK by means of GastroPlus™ software. […]
smiles,measurement,setting,value
"CC1(C)CC(Oc2ccc(-c3ccc(-c4cn[nH]c4)cc3O)nn2)CC(C)(C)N1 [Compound 18, 5-(1H-pyrazol-4-yl)-2-(6-((2,2,6,6-tetramethylpiperidin-4-yl)oxy)pyridazin-3-yl)phenol]",Tmax,"[1]; human, plasma, Type 1 SMA patients, oral, nominal dose range 6 to 60 mg/m^2, read-out: median time of maximum concentration (Tmax) in plasma",2.97 to 4 h
same,dose-limiting toxicity,"[1]; infants with Type 1 SMA, once weekly 6 to 60 mg/m^2, exposure 4-33 months",No dose-limiting toxicity was observed
same,Vc,[2],3.62 (Optimized value using GastroPlus ™ based on the 1/h
same,k12,[2],1.41 (Optimized value using GastroPlus ™ based on the 1/h
same,k21,[2],0.144 (Optimized value using GastroPlus ™ based on the 1/h

# Source: patent US20240216369A1, “THE USE OF A SPLICING MODULATOR FOR A TREATMENT SLOWING PROGRESSION OF HUNTINGTON'S DISEASE” (Novartis AG, priority 2019, published 2024)
